Experiments:
[1] = tested on: myo-inositol; details: transgenic mice, Choi et al. 2010; cited from earlier work
[2] = tested on: amyloid β-peptide; details: given orally, transgenic mouse model of AD; cited from earlier work
[3] = tested on: patients with mild to moderate AD (MMSE 16-26); assay: Phase 2 placebo-controlled trial: cognitive and functional outcome measures (NTB, ADCS-ADL, CDR-SB); format: in vivo, human
Protocol: (§1) In a Phase 2, parallel arm, dose-ranging, placebo-controlled, double-blind, multicenter trial in patients with mild to moderate AD (MMSE 16-26), scyllo-inositol was administered to study subjects in immediate release tablets twice daily at the dosage level set for each study arm or identical-appearing placebo tablets were administered in the control arm. […] The study included neuropsychological assessments using the NPI-12 item scale, as well as assessments of scyllo-Inositol (SI) and myo-inositol (MI) brain levels using magnetic resonance spectroscopy (MRS).
Study drug was administered as placebo or one of 3 doses of scyllo-inositol (SI): 250 mg, 1000 mg and 2000 mg, each dose given twice daily (bid) as capsules of either 250 mg or 1000 mg.
(§2) The present study was a dose ranging study in Mild and Moderate AD patients (defined as having MMSE scores of 16-26 inclusive), and included 3 doses of scyllo-insoitol given bid (250 mg, 1000 mg, and 2000 mg) and placebo. The study was of 78 weeks duration and enrolled a total of 353 patients, and 351 received study drug (safety population). Due to safety findings in the 2 highest dose groups, these 2 groups were discontinued and the study's final efficacy analysis was based only on the 250 mg and placebo groups. The primary efficacy analysis was based on the overall population (mild and moderate), but the statistical analysis plan (SAP) Included subgroup analyses by disease severity, and defined Mild as patients with MMSE 23-26 and Moderate 16-22 inclusive. In the overall study population, total randomized to all 4 dose groups=353, total that received study drug=351 (safety population, at any dose). For placebo and 250 mg group, the overall m-ITT (modified intent-to-treat)=166, overall PPS (per protocol set)=96.
Values for all clinical outcome measures were calculated so that a positive change from baseline indicates improvement, and a positive difference from placebo indicates drug benefit.
A sensitivity analysis was performed post-hoc using a wider definition of the Mild sub-group (MMSE: 22-26 inclusive) with a larger sample size. In this sensitivity analysis, the positive effect of the 250 mg on the NTB score approached a significant trend (p<0.1) in the m-ITT analysis (Table 3), and was significant (p<0.05) in the PP analysis (data on file). […] On this basis, all further analyses shown here are defined in the Mild and Moderate subgroups as patients having MMSE scores between 22-26 (Mild) and 16-21 (Moderate) inclusive.

[4] = tested on: myo-inositol brain levels; assay: Phase 2 trial: brain myo-inositol and scyllo-inositol levels by magnetic resonance spectroscopy (MRS); format: in vivo, human
Protocol: as §1
The maximal myo-inositol reduction measured at the 3 studied doses was 44%, 66% and 60% at the 250 mg, 1000 mg, and 2000 mg bid doses, respectively.

[5] = tested on: patients with mild to moderate AD (MMSE 16-26); assay: Phase 2 trial: safety and tolerability; format: in vivo, human; details: 250 mg bid, elderly study population
Protocol: as §2
In summary, scyllo-inositol exposures ≧1000 mg bid provide less cognitive and functional benefit than the 250 mg bid dose. These high exposures may be associated with an increase in neuropsychiatric adverse events.

[6] = 250 mg bid, Mild MMSE 22-26 (post-hoc), m-ITT
[7] = 250 mg bid, Mild MMSE 22-26, m-ITT
[8] = 250 mg bid, Mild MMSE 23-26, PPS
[9] = 250 mg bid, Mild MMSE 23-26, m-ITT
[10] = 250 mg bid, Mild MMSE 23-26, m-ITT, week 78, positive = drug benefit

In the case of `O[C@H]1[C@H](O)[C@@H](O)[C@H](O)[C@@H](O)[C@@H]1O` [scyllo-inositol], the “myo-inositol reductions in frontal cortex and hippocampus (MRS)” value [1] is listed as “rather modest non significant myo-inositol reductions”, the “aggregation of amyloid β-peptide in the brain” value [2] is listed as “inhibits aggregation of amyloid β-peptide in the brain” and the ADCS-DL drug-placebo difference [3, 6] is listed as 3.15. The CDR-SB drug-placebo difference [3, 6] was 0.97, the NTB drug-placebo difference [3, 6] was 0.2 and the “ADCS-DL % effect compared to placebo” value [3, 7] was 42%. The “CDR-SB % effect compared to placebo” value [3, 7] was 42%, the “NTB % effect compared to placebo” value [3, 7] was 75% and the “ADCS-ADL % effect compared to placebo” value [3, 8] was 31%. For the same compound, the ADCS-ADL drug-placebo difference [3, 8] was 2.25, the “CDR-SB % effect compared to placebo” value [3, 8] was 44% and the CDR-SB drug-placebo difference [3, 8] was 0.95. The “NTB % effect compared to placebo” value [3, 8] was 100%, the NTB drug-placebo difference [3, 8] was 0.4 and the “ADCS-ADL % effect compared to placebo” value [3, 9] was 35%. The “CDR-SB % effect compared to placebo” value [3, 9] was 40%, the “NTB % effect compared to placebo” value [3, 9] was 72% and the ADCS-ADL drug-placebo difference [3, 10] was 2.26. The CDR-SB drug-placebo difference [3, 10] was 0.87, the NTB drug-placebo difference [3, 10] was 0.2 and the “magnitude of the 250 mg effect on the NTB” value ([3]; 250 mg bid, overall mild and moderate population, per protocol subjects, week 78, not statistically significant) was 0.15. The “NTB benefit compared to placebo” value ([3]; 250 mg bid, overall population, per protocol subjects, week 78) was 40%, the “benefit on co-primary cognitive and functional endpoints (NTB and ADCS-ADL)” value ([3]; overall Mild and Moderate population) was “no statistically significant benefit” and the “maximal myo-inositol reduction in brain (MRS)” value (“maximal myo-inositol reduction” below) ([4]; 250 mg bid, maximal at about 48 to about 78 weeks) was 44%. The “maximal myo-inositol reduction” value ([4]; 1000 mg bid) was 66%, the “maximal decrease of myo-inositol levels” value ([4]; 1000 mg bid and 2000 mg bid) was 60-66% and the “maximal myo-inositol reduction” value ([4]; 2000 mg bid) was 60%. For the same compound, the “brain scyllo-inositol level by MRS” value ([4]; 250, 1000, 2000 mg bid) was “dose-dependent increase” and the “safety and CNS tolerability” value [5] was “acceptable safety and good CNS tolerability”.

Reference: US20140243422A1, “METHODS OF TREATING BEHAVIORAL AND PSYCHIATRIC DISORDERS” (ELAN PHARMACEUTICALS, INC., priority 2011, published 2014)
